One compound from US10548862B2, “Topical formulation and method for preventing or treating acne” (Gongwin Biopharm Holdings Co., Ltd., priority 2017, dated 2020) can be followed below.

A short description of this data set: Solubility of p-TSA in various solvents. It counts as physicochemical. As to conditions: thermodynamic from solid.

Converted amounts (≈) assume the structure as drawn.

For the compound `Cc1ccc(S(N)(=O)=O)cc1` [p-TSA, p-Toluenesulfonamide], the solubility runs as follows: (aqueous with cosolvent or surfactant or cyclodextrin, in 20% 7-sulfobutyl-ether-β-cyclodextrin (SBEβCD), n = 3) 17.6 mg/mL (≈ 103 mM); (organic solvent or mixture, in Absolute ethanol, n = 3) 108 mg/mL (≈ 628 mM); (organic solvent or mixture, in Dimethyl sulfoxide (DMSO), n = 3) 786 mg/mL (≈ 4590 mM); (organic solvent or mixture, in Glycerol, n = 3) 28.4 mg/mL (≈ 166 mM); (organic solvent or mixture, in Glycofurol 75, n = 3) 443 mg/mL (≈ 2590 mM); (organic solvent or mixture, in Polyethylene glycol 400 (PEG-400), n = 3) 467 mg/mL (≈ 2720 mM). For the same compound, the solubility (organic solvent or mixture, in Propylene glycol (PG), n = 3) was found to be 118 mg/mL (≈ 688 mM).
